# Experiment: solvent given as SMILES
smiles,measurement,setting,value
CCCCOC(=O)/C(C#N)=C1\C(=CC2=[N+](C)c3ccccc3C2(C)C)C([O-])=C1C=C1N(C)c2ccccc2C1(C)C,absorption maximum,in ClC(Cl)Cl,691 nm
CN(C)c1ccc(C2=[N+]3C(=Nc4c(-c5ccc(O)cc5)cc(-c5ccc(N(C)C)cc5)n4[B-]3(F)F)C(c3ccc(O)cc3)=C2)cc1,absorption maximum,in C1CCOC1,775 nm
same,absorption maximum,in CS(C)=O,794 nm
same,absorption maximum,in Cc1ccccc1,778 nm
CCc1ccc(/C=C/c2ccc(-c3nnc(-c4ccc(-c5cc6ccccc6s5)cc4)o3)cc2)cc1,absorption maximum,in CC#N,342 nm
same,absorption maximum,in CC(C)=O,347 nm
same,absorption maximum,in CCCCCCCC,341 nm
same,absorption maximum,in CCCCCCCCCCO,357 nm
same,absorption maximum,in CCCCCCCCO,357 nm
same,absorption maximum,in CCCCCO,354 nm
same,absorption maximum,in CCCO,347 nm
same,absorption maximum,in CN(C)C=O,355 nm
same,absorption maximum,in CO,326 nm
same,absorption maximum,in CS(C)=O,350 nm
COc1ccc(/C2=C3N=C(C(c4ccccc4)=C/3c3ccccc3)/C(c3ccc(OC)cc3)=c3\[nH]/c(c(-c4ccccc4)c3-c3ccccc3)=C(/c3ccc(OC)cc3)C3=N/C(=C(/c4ccc(OC)cc4)c4[nH]c2c(-c2ccccc2)c4-c2ccccc2)C(c2ccccc2)=C3c2ccccc2)cc1,absorption maximum,in ClCCl,731 nm
c1cc2c3c(c1)ccc1[n+]3[B-]3(Oc4cccc5ccc6[n+](c45)[B-](O2)(O3)n2c-6cc3c4ccccc4c4ccccc4c32)n2c-1cc1c3ccccc3c3ccccc3c12,absorption maximum,in ClCCl,472 nm
COc1ccccc1-c1nc(-c2ccccc2)c(-c2ccccc2)[nH]1,absorption maximum,in CO,307 nm
CN(C)c1ccc(/C=C/c2cc[n+](Cc3cc(C[n+]4ccc(/C=C/c5ccc(N(C)C)cc5)cc4)cc(C[n+]4ccc(/C=C/c5ccc(N(C)C)cc5)cc4)c3)cc2)cc1,absorption maximum,in C1COCCO1,480 nm
same,absorption maximum,in CC(C)O,490 nm
same,absorption maximum,in CCCCCCCCO,489 nm
same,absorption maximum,in CCCCO,491 nm
same,absorption maximum,in CCCO,495 nm
same,absorption maximum,in CCO,498 nm
same,absorption maximum,in CO,498 nm
same,absorption maximum,in CS(C)=O,491 nm
same,absorption maximum,in ClC(Cl)Cl,500 nm
same,absorption maximum,in ClCCl,500 nm
c1ccc(-c2cc(-c3ccc(-c4nc(-c5ccccn5)c(-c5ccccn5)[nH]4)cc3)cc(-c3ccccn3)n2)nc1,absorption maximum,in C1CCOC1,371 nm
same,absorption maximum,in CC#N,380 nm
same,absorption maximum,in CC(C)=O,381 nm
same,absorption maximum,in CCO,326 nm
same,absorption maximum,in CCOC(C)=O,360 nm
same,absorption maximum,in CN(C)C=O,337 nm
same,absorption maximum,in CO,321 nm
same,absorption maximum,in CS(C)=O,338 nm
same,absorption maximum,in ClC(Cl)Cl,408 nm
same,absorption maximum,in ClCCl,388 nm
O=Cc1ccc2c(c1)c1ccccc1n2-c1ccc(-c2ccc(-n3c4ccccc4c4cc(C=O)ccc43)cc2)cc1,absorption maximum,in ClCCl,329 nm
CCCCCCCCCn1c(-c2cc(-c3nc4ccccc4n3CCCCCCCCC)cc(-c3nc4ccccc4n3CCCCCCCCC)c2)nc2ccccc21,absorption maximum,in ClCCl,300 nm
CC(C)(C)c1ccc2c(c1)c1cc(C(C)(C)C)ccc1n2-c1ccccc1-c1nc(-c2ccccc2P(=O)(c2ccccc2)c2ccccc2)nc(-c2ccccc2P(=O)(c2ccccc2)c2ccccc2)n1,absorption maximum,in C1CCOC1,343.56 nm
same,absorption maximum,in CC#N,347.54 nm
same,absorption maximum,in CC(C)=O,343.88 nm
same,absorption maximum,in CN(C)C=O,345.95 nm
same,absorption maximum,in Cc1ccccc1,320.35 nm
same,absorption maximum,in ClC(Cl)Cl,342.93 nm
same,absorption maximum,in ClCCl,341.49 nm
CCOC(=O)c1c(-c2c(Cl)c3ccccc3oc2=O)nn(-c2ccccc2)c1C(=O)OCC,absorption maximum,in ClCCl,322 nm
CCC1=C(C)C(=O)n2c1cc1c(C)c(CC(=O)OC)c(C)n1c2=O,absorption maximum,in CC#N,413 nm
same,absorption maximum,in CC(C)=O,413 nm
same,absorption maximum,in CO,420 nm
same,absorption maximum,in CS(C)=O,421 nm
same,absorption maximum,in ClC(Cl)Cl,423 nm
same,absorption maximum,in c1ccccc1,416 nm
Oc1c(-c2ccco2)cccc1-c1nc2ccccc2s1,absorption maximum,in ClCCl,360 nm
same,absorption maximum,in O,360 nm
CCn1c2ccccc2c2c3nsnc3c3c4ccccc4n(CC)c3c21,absorption maximum,in CN(C)C=O,420 nm
same,absorption maximum,in Cc1ccccc1,420 nm
same,absorption maximum,in ClCCl,420 nm
COc1ccc(-c2c3ccccc3c(-c3ccc(OC)cc3)c3cc4sc(C)cc4cc23)cc1,absorption maximum,in ClCCl,450 nm
COc1ccc(C2=C(c3ccc(OC)cc3)C(c3ccc(OC)cc3)=[N+]3C2=C(c2ccc(OC)cc2)c2c(-c4ccc(OC)cc4)c(-c4ccc(OC)cc4)c(-c4ccc(OC)cc4)n2[B-]3(F)F)cc1,absorption maximum,in C1CCOC1,597 nm
O=[N+]([O-])c1cccs1,absorption maximum,in CO,308 nm
same,absorption maximum,in O,318 nm
COc1ccc(-c2cccc3ncc(-c4ccccc4)n23)cc1,absorption maximum,in ClCCl,332 nm
CCOC(=O)COc1ccc(/C=C/c2c(CC)c(C)c3n2[B-](F)(F)[N+]2=C(c4[nH]c(C)c(CC)c4C)c4ccccc4C2=C3C)cc1,absorption maximum,in C1CCOC1,675 nm
same,absorption maximum,in CC#N,664 nm
same,absorption maximum,in CCCCCC,677 nm
same,absorption maximum,in CO,666 nm
same,absorption maximum,in Cc1ccccc1,682 nm
same,absorption maximum,in ClCCl,675 nm
C#CCOc1ccc(/C=C/C2=[N+]3C(=C(c4ccc(N5CCCCC5)cc4)c4c(C)cc(C)n4[B-]3(F)F)C(C)=C2)cc1,absorption maximum,in CO,568 nm
Nc1ccc(/C=C/c2ccccc2)cc1,absorption maximum,in CC#N,318 nm
same,absorption maximum,in CCCCCC,316 nm
CCOC(=O)c1sc2nc3c(c(C#N)c2c1N)CCCCCC3,absorption maximum,in c1ccccc1,410 nm
COC(=O)c1c(-c2cc3ccccc3oc2=O)nn(-c2cccc(C)c2)c1C(=O)OC,absorption maximum,in ClCCl,324 nm
c1ccc(-n2c(-c3ccc(N(c4ccc(-c5ccc(N(c6ccc(-c7nc8c9ccccc9c9ccccc9c8n7-c7ccccc7)cc6)c6ccc(-c7nc8c9ccccc9c9ccccc9c8n7-c7ccccc7)cc6)cc5)cc4)c4ccc(-c5nc6c7ccccc7c7ccccc7c6n5-c5ccccc5)cc4)cc3)nc3c4ccccc4c4ccccc4c32)cc1,absorption maximum,in ClCCl,376 nm
Cc1nc2ccc(/C=C/c3ccc(N(C)C)cc3)cc2nc1-c1ccccc1,absorption maximum,in C1COCCO1,403 nm
same,absorption maximum,in CC#N,400 nm
same,absorption maximum,in ClCCl,408 nm
CCCCCCCCCCn1cc(C2=C(c3cn(CCCCCCCCCC)c4ccccc34)C(=O)N(C)C2=O)c2ccccc21,absorption maximum,in C1CCCCC1,462 nm
same,absorption maximum,in C1CCOC1,471 nm
same,absorption maximum,in CC#N,470 nm
same,absorption maximum,in CC(C)OC(C)C,470 nm
same,absorption maximum,in CCCCOCCCC,469 nm
same,absorption maximum,in CCO,480 nm
same,absorption maximum,in CCOC(C)=O,472 nm
same,absorption maximum,in CN(C)C=O,474 nm
same,absorption maximum,in Cc1ccccc1,472 nm
same,absorption maximum,in ClCCl,477 nm
CCOC(=O)CN1C(=O)C2=C(c3ccccc3)N(CC(=O)OCC)C(=O)C2=C1c1ccccc1,absorption maximum,in CC#N,454 nm
same,absorption maximum,in CS(C)=O,460 nm
same,absorption maximum,in Cc1ccccc1,462 nm
C[Si]1(C)c2cc(-c3ccc(N(c4ccccc4)c4ccccc4)cc3)ccc2C=Cc2ccc(-c3ccc(N(c4ccccc4)c4ccccc4)cc3)cc21,absorption maximum,in ClCCl,435 nm
CCCCOC(=O)c1cc(Cl)c2c3c(Cl)cc4c5c(cc(Cl)c(c6c(Oc7ccc(OC)cc7)cc(C(=O)OCCCC)c1c26)c53)C(=O)N(c1c(C(C)C)cccc1C(C)C)C4=O,absorption maximum,in Cc1ccccc1,519 nm
COC(=O)CCC(NC(=O)CCNc1cccc2ccccc12)C(=O)OC (configuration not stated),absorption maximum,in CCO,330 nm
CCCCn1c(-c2ccc(-c3nnc(-c4ccc(-c5nc(-c6ccccc6)c(-c6ccccc6)n5CCCC)cc4)o3)cc2)nc(-c2ccccc2)c1-c1ccccc1,absorption maximum,in ClCCl,352 nm
COc1ccc2c(c1)-c1cc3c(cc1[Si]2(c1ccccc1)c1ccccc1)-c1ccccc1[Si]3(c1ccccc1)c1ccccc1,absorption maximum,in ClCCl,334 nm
COc1ccc(C2=[N+]3C(=Nc4c(-c5ccccc5)c(Br)c(-c5ccc(OC)cc5)n4[B-]3(F)F)C(c3ccccc3)=C2Br)cc1,absorption maximum,in ClC(Cl)Cl,679 nm
same,absorption maximum,in ClCCl,679 nm
CC1(C)c2ccccc2N(c2ccc(-c3ccc4c(c3)c3cc(-c5ccc(N6c7ccccc7C(C)(C)c7ccccc76)cc5)ccc3c3nc(C#N)c(C#N)nc43)cc2)c2ccccc21,absorption maximum,in Cc1ccccc1,405 nm
CN(C)c1cccc(/C=C/c2ncc(-c3ccc(OCc4ccccc4)c(OCc4ccccc4)c3)o2)c1,absorption maximum,in ClCCl,350 nm
Cc1cc2c(o1)c(C)cc1ccc(=O)oc12,absorption maximum,in C1CCCCC1,330 nm
same,absorption maximum,in C1COCCO1,315 nm
same,absorption maximum,in CC#N,315 nm
same,absorption maximum,in CCO,305 nm
same,absorption maximum,in OCC(F)(F)F,310 nm
C(S/C=C/c1ccc(-c2ccc(/C=C/SC=C3CCCCC3)cc2)cc1)=C1CCCCC1,absorption maximum,in ClCCl,351 nm
CCn1c2ccccc2c2ccc(C#N)cc21,absorption maximum,in C1CCCCC1,366 nm
Cc1ccc(C2=C3C=C(I)C=[N+]3[B-](F)(F)n3c2cc(I)c3I)cc1,absorption maximum,in C1CCCCC1,563.5 nm
same,absorption maximum,in CC#N,553 nm
same,absorption maximum,in CCO,559 nm
same,absorption maximum,in CCOC(C)=O,556.5 nm
same,absorption maximum,in CO,557.5 nm
same,absorption maximum,in OCC(F)(F)F,553 nm
CN(C)c1ccc(C2=CC3=C(c4ccc(C=O)cc4)[C@H]4c5ccccc5[C@]3(S2)c2ccccc24)cc1,absorption maximum,in ClCCl,449 nm
CCCCC(CC)Cn1c2cc(C#N)ccc2c2ccc(C#Cc3ccc4ccc5c(C#Cc6ccc7c8ccc(C#N)cc8n(CC(CC)CCCC)c7c6)cc(C#Cc6ccc7c8ccc(C#N)cc8n(CC(CC)CCCC)c7c6)c6ccc3c4c56)cc21 (configuration not stated),absorption maximum,in ClCCl,447 nm
COc1c2ccccc2c(OC)c2c(C#Cc3ccccc3)c3cc4sccc4cc3c(C#Cc3ccccc3)c12,absorption maximum,in ClCCl,656 nm
Cc1cc(=O)oc2cc(/[NH+]=C/C=C3/C=C(C(=O)O)NC(C(=O)O)C3)ccc12 (configuration not stated),absorption maximum,in O,520 nm
F[B-]1(F)n2c(Cl)c(Cl)c(Br)c2C(Cl)=C2C(Br)=C(Cl)C(Cl)=[N+]21,absorption maximum,in ClCCl,546 nm
c1ccc(-[n+]2c3ccc4cccc5c6cccc7c8cccc9ccc2c(c98)c(c67)c3c45)cc1,absorption maximum,in ClCCl,512 nm
N#Cc1ccc(C#Cc2ccc(C#Cc3ccccc3C#N)cc2C#N)cc1,absorption maximum,in ClC(Cl)Cl,340 nm
O=Cc1ccc(-c2ccc(O)c(-c3nc4ccccc4s3)c2)s1,absorption maximum,in ClCCl,350 nm
same,absorption maximum,in O,338 nm
O=c1cc(C(F)(F)F)c2cc3c4c(c2o1)CCCN4CCC3,absorption maximum,in C1CCCCC1,393 nm
same,absorption maximum,in CC#N,418 nm
same,absorption maximum,in CCO,421 nm
same,absorption maximum,in CCOC(C)=O,409 nm
same,absorption maximum,in OCC(O)CO,434 nm

# — the Deep4Chem optical property database
